In the kinase profiling compilation of Christmann-Franck et al. (2016):

What was measured:
Experiment in all cases: KINOMEscan competition binding
Conditions in all cases: compound 10.0 µM
TXK (human) = TXK (human) (UniProt P42681)
SGK3 (human) = SGK3 (human) (UniProt Q96BR1)
PRKCH (human) = PRKCH (human) (UniProt P24723)
HIPK3 (human) = HIPK3 (human) (UniProt Q9H422)
AKT2 (human) = AKT2 (human) (UniProt P31751)
IRAK3 (human) = IRAK3 (human) (UniProt Q9Y616)
MATK (human) = MATK (human) (UniProt P42679)
PI4KB (human) = PI4KB (human) (UniProt Q9UBF8)
PIP5K1C (human) = PIP5K1C (human) (UniProt O60331)
PIM2 (human) = PIM2 (human) (UniProt Q9P1W9)
[1] = biological target: TYK2 JH2 pseudokinase (human) (UniProt P29597)
MAPK10 (human) = MAPK10 (human) (UniProt P53779)
Chain of MAPK10 (human) (P53779 whole entry, looked up): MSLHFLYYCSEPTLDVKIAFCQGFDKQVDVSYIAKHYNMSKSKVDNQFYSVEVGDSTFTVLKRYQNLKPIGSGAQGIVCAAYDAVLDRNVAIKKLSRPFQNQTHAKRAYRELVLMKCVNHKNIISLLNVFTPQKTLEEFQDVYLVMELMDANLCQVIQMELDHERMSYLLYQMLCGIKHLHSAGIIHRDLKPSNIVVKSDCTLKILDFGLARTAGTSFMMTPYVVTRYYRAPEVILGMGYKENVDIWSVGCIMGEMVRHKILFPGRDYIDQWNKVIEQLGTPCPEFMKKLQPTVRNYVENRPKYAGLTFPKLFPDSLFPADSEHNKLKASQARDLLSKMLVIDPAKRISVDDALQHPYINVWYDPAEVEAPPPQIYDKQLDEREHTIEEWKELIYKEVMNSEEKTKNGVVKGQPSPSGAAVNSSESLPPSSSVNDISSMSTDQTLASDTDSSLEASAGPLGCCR

[2] = tested on: KIT (human), P10721 [L576P]
DMPK (human) = DMPK (human) (UniProt Q09013)
RPS6KA1 KD2 (human) = RPS6KA1 KD2 (human) (UniProt Q15418)
CDKL3 (human) = CDKL3 (human) (UniProt Q8IVW4)
CDK14 (human) = CDK14 (human) (UniProt O94921)
Chain of CDK14 (human) (O94921 whole entry, looked up): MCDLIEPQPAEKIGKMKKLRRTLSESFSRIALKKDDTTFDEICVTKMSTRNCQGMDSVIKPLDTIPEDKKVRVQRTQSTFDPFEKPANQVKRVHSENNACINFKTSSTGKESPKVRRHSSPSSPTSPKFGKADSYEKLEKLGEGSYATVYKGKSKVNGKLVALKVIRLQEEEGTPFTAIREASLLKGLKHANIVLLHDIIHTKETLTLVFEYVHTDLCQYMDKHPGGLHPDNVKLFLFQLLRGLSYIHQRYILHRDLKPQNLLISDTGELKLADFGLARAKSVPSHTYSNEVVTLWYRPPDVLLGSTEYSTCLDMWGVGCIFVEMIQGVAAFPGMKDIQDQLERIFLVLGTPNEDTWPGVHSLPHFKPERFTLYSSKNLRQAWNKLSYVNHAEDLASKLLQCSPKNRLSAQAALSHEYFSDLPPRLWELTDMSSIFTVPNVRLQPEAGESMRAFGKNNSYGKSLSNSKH

FLT3 (human) = FLT3 (human) (UniProt P36888)
ULK2 (human) = ULK2 (human) (UniProt Q8IYT8)
ZAP70 (human) = ZAP70 (human) (UniProt P43403)
Chain of ZAP70 (human) (P43403 whole entry, looked up): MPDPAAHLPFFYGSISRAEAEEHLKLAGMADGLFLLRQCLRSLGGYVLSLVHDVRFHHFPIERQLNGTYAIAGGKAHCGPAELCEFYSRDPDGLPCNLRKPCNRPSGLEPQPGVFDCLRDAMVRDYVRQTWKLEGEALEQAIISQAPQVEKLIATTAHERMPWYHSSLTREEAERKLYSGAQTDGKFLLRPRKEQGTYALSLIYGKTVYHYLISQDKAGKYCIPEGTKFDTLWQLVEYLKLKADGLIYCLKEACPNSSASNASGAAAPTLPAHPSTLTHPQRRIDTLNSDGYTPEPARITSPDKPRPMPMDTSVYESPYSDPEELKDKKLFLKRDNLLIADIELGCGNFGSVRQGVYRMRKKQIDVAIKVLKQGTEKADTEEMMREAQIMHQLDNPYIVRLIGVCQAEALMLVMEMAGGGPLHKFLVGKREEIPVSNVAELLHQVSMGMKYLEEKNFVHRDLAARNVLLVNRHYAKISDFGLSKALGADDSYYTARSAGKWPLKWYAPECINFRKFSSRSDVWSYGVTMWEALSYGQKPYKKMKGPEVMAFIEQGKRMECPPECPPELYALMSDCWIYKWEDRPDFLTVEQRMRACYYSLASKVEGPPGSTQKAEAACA

RPS6KA3 KD1 (human) = RPS6KA3 KD1 (human) (UniProt P51812)
IGF1R (human) = IGF1R (human) (UniProt P08069)
WEE1 (human) = WEE1 (human) (UniProt P30291)
ITK (human) = ITK (human) (UniProt Q08881)
PRPF4B (human) = PRPF4B (human) (UniProt Q13523)
AKT3 (human) = AKT3 (human) (UniProt Q9Y243)
Chain of AKT3 (human) (Q9Y243 whole entry, looked up): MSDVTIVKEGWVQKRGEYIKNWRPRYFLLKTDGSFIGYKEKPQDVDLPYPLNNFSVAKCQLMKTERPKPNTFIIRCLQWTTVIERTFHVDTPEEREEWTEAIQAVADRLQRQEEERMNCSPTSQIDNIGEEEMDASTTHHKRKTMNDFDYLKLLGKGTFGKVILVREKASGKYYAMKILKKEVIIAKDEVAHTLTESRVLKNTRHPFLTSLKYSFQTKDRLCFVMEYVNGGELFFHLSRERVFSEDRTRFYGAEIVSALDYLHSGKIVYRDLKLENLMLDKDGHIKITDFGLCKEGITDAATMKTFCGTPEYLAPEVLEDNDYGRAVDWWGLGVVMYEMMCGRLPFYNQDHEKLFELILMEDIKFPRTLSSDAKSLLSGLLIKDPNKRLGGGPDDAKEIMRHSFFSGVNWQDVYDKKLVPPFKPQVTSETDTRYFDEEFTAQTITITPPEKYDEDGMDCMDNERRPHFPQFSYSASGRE

MYLK (human) = MYLK (human) (UniProt Q15746)
TGFBR2 (human) = TGFBR2 (human) (UniProt P37173)
EIF2AK2 (human) = EIF2AK2 (human) (UniProt P19525)
Chain of EIF2AK2 (human) (P19525 whole entry, looked up): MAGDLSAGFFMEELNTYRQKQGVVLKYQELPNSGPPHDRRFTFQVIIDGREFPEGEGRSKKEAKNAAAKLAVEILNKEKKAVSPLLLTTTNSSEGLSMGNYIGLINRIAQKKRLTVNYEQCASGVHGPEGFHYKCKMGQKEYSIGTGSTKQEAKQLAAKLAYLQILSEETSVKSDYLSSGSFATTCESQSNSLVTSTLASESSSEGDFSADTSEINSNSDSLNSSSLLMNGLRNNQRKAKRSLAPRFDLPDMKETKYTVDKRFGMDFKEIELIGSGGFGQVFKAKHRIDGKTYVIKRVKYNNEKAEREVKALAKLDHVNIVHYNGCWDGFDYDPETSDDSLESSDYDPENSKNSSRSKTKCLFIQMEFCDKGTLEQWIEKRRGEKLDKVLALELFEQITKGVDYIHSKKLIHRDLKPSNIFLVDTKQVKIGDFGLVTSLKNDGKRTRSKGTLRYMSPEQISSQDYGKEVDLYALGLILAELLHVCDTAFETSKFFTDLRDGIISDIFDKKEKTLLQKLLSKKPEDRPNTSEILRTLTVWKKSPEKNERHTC

ACVR2B (human) = ACVR2B (human) (UniProt Q13705)
ERBB3 (human) = ERBB3 (human) (UniProt P21860)
NTRK2 (human) = NTRK2 (human) (UniProt Q16620)
Chain of NTRK2 (human) (Q16620 whole entry, looked up): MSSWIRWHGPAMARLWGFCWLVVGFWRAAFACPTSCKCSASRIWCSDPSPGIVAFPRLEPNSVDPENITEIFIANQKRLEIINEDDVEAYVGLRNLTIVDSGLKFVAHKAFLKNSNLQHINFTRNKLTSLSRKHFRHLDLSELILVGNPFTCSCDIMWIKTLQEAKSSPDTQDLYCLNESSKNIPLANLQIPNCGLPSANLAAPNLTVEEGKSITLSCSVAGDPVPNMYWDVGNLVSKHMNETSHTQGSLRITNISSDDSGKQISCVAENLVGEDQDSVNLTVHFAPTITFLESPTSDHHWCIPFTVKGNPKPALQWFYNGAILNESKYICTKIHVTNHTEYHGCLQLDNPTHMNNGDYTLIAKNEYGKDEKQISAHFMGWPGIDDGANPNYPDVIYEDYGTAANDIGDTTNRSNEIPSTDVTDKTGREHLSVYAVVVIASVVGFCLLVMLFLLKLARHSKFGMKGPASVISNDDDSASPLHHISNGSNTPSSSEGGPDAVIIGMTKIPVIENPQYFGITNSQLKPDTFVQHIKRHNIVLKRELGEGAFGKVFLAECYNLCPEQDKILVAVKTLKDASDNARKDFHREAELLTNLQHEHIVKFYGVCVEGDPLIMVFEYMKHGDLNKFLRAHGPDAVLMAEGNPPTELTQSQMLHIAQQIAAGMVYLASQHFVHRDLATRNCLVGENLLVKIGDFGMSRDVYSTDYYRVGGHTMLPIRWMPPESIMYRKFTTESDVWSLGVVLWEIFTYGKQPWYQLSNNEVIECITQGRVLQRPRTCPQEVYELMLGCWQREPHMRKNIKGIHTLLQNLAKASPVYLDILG

TBK1 (human) = TBK1 (human) (UniProt Q9UHD2)
PDGFRA (human) = PDGFRA (human) (UniProt P16234)
Chain of PDGFRA (human) (P16234 whole entry, looked up): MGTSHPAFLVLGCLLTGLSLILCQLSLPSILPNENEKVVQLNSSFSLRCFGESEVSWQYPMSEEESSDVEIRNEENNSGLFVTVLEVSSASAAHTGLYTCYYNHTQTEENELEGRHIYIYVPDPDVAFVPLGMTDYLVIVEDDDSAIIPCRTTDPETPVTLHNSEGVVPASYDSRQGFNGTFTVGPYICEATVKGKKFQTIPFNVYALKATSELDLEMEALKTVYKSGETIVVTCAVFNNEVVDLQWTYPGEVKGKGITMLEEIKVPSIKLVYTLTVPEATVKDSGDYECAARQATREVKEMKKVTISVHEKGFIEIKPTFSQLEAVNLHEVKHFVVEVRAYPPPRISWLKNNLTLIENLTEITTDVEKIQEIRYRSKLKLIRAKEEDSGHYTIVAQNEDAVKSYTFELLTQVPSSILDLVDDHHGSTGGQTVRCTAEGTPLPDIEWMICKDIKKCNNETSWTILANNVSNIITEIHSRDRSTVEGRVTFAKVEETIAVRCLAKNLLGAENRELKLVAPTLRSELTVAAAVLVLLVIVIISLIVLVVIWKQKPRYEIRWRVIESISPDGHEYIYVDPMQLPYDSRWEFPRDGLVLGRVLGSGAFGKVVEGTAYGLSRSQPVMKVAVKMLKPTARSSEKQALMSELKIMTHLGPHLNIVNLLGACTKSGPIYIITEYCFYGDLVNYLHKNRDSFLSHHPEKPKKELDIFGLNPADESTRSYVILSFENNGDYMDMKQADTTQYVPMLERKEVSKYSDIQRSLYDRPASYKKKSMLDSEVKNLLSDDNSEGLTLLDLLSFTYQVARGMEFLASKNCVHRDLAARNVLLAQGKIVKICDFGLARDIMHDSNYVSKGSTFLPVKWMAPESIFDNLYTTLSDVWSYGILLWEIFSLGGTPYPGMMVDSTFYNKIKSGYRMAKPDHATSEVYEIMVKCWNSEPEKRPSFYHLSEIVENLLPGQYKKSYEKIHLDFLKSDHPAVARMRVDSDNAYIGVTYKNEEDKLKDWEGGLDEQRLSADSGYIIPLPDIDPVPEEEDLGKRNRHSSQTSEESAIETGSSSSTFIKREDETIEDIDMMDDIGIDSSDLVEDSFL

CSNK1D (human) = CSNK1D (human) (UniProt P48730)
Chain of CSNK1D (human) (P48730 whole entry, looked up): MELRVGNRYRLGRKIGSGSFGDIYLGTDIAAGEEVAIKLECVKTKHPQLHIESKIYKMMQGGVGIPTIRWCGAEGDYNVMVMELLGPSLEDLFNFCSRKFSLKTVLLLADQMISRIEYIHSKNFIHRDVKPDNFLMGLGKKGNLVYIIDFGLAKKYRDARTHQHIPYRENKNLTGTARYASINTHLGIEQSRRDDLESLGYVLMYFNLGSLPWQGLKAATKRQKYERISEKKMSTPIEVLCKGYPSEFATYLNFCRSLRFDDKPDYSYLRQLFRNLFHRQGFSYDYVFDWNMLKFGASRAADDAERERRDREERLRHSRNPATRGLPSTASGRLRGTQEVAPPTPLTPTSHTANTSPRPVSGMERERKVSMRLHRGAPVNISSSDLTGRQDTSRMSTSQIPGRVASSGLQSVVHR

PRKAA1 (human) = PRKAA1 (human) (UniProt Q13131)
BTK (human) = BTK (human) (UniProt Q06187)
CSK (human) = CSK (human) (UniProt P41240)
TESK1 (human) = TESK1 (human) (UniProt Q15569)
CAMKK2 (human) = CAMKK2 (human) (UniProt Q96RR4)

Row | Structure (SMILES) | kinase still bound, per cent of control (TXK (human)) [%] | kinase still bound, per cent of control (SGK3 (human)) [%] | kinase still bound, per cent of control (HIPK3 (human)) [%] | kinase still bound, per cent of control (AKT2 (human)) [%] | kinase still bound, per cent of control (IRAK3 (human)) [%] | kinase still bound, per cent of control (MATK (human)) [%] | kinase still bound, per cent of control (PI4KB (human)) [%] | kinase still bound, per cent of control (PIP5K1C (human)) [%] | kinase still bound, per cent of control (PIM2 (human)) [%] | kinase still bound, per cent of control [1] [%] | kinase still bound, per cent of control (MAPK10 (human)) [%] | kinase still bound, per cent of control (DMPK (human)) [%] | kinase still bound, per cent of control (RPS6KA1 KD2 (human)) [%] | kinase still bound, per cent of control (CDKL3 (human)) [%] | kinase still bound, per cent of control (CDK14 (human)) [%] | kinase still bound, per cent of control (FLT3 (human)) [%] | kinase still bound, per cent of control (ULK2 (human)) [%] | kinase still bound, per cent of control (ZAP70 (human)) [%] | kinase still bound, per cent of control (RPS6KA3 KD1 (human)) [%] | kinase still bound, per cent of control (IGF1R (human)) [%] | other results
1 | C[C@@H](Oc1cc(-c2cnn(C3CCNCC3)c2)cnc1N)c1c(Cl)ccc(F)c1Cl | 5.9 | 100 | 92 | 100 | 0.95 | 64 | 100 | 63 | 100 | 2.3 | 80 | 1.6 | 54 | 68 | 92 | 7.8 | 4.7 | 29 | 47 | 0.9 | kinase still bound, per cent of control (PRKCH (human)): 100%; kinase still bound, per cent of control [2]: 43%; kinase still bound, per cent of control (WEE1 (human)): 100%; kinase still bound, per cent of control (ITK (human)): 33%; kinase still bound, per cent of control (PRPF4B (human)): 48%; kinase still bound, per cent of control (AKT3 (human)): 100%; kinase still bound, per cent of control (MYLK (human)): 82%; kinase still bound, per cent of control (TGFBR2 (human)): 100%; kinase still bound, per cent of control (EIF2AK2 (human)): 43%; kinase still bound, per cent of control (ACVR2B (human)): 38%; kinase still bound, per cent of control (ERBB3 (human)): 81%; kinase still bound, per cent of control (NTRK2 (human)): 0.2%; kinase still bound, per cent of control (TBK1 (human)): 8.7%; kinase still bound, per cent of control (PDGFRA (human)): 92%; kinase still bound, per cent of control (CSNK1D (human)): 100%; kinase still bound, per cent of control (PRKAA1 (human)): 8%
2 | N#CCNC(=O)c1ccc(-c2ccnc(Nc3ccc(N4CCOCC4)cc3)n2)cc1 | 100 | 59 | 17 | 76 | 22 | 85 | 17 | 54 | 100 | 100 | 2.4 | 37 | 80 | 60 | 76 | 100 | 60 | 91 | 100 | 100 | kinase still bound, per cent of control (BTK (human)): 75%; kinase still bound, per cent of control (CSK (human)): 100%; kinase still bound, per cent of control (TESK1 (human)): 100%; kinase still bound, per cent of control (CAMKK2 (human)): 51%; kinase still bound, per cent of control (WEE1 (human)): 100%; kinase still bound, per cent of control (ITK (human)): 98%; kinase still bound, per cent of control (PRPF4B (human)): 8%; kinase still bound, per cent of control (AKT3 (human)): 100%; kinase still bound, per cent of control (MYLK (human)): 100%; kinase still bound, per cent of control (TGFBR2 (human)): 89%; kinase still bound, per cent of control (EIF2AK2 (human)): 47%; kinase still bound, per cent of control (ACVR2B (human)): 54%; kinase still bound, per cent of control (ERBB3 (human)): 100%; kinase still bound, per cent of control (NTRK2 (human)): 67%; kinase still bound, per cent of control (TBK1 (human)): 10%; kinase still bound, per cent of control (PDGFRA (human)): 100%; kinase still bound, per cent of control (CSNK1D (human)): 100%; kinase still bound, per cent of control (PRKAA1 (human)): 42%
